Measured values as given in patent US10420749B2, “Crystalline form of lorlatinib free base” (Pfizer Inc., priority 2015, dated 2019).
Entries after “also recorded” stand apart in the source; their conditions may differ. Values belong to the molecule of their own block, whether it stands above or below them.

Assays:
Assay type in all cases: physicochemical
[1] = Thermodynamic stability: slurry experiments, solid form evaluated by PXRD; details: for Slurry Output (solid form): 2 weeks
Experimental: The thermodynamic stability of anhydrous lorlatinib free base (Form 7) was evaluated employing slurry experiments under a range of water activity and temperature conditions. […] After 2 weeks, the solids in equilibrium were isolated and the solid form was evaluated by PXRD.

[2] = Solid-state physical stability of Form 7 API at elevated humidity / accelerated conditions
Source text: The physical stability of anhydrous lorlatinib free base (Form 7) API was investigated at elevated relative humidities (% RH) for extended time period and at accelerated stability conditions for shorter period.

[3] = Physical stability in the drug product by FT-Raman and Solid State NMR spectroscopy; details: for amount of physical impurity: in drug product
Source text: The physical stabilities of lorlatinib Form 7 and acetic acid solvate in the drug product were investigated under a variety of conditions using FT-Raman and Solid State NMR spectroscopy.

Slurry Output (solid form) ([1]; IPA, water activity 0.25, 5° C.): Form 16
Slurry Output (solid form) ([1]; IPA, water activity 0.25, 40° C.): Form 7
Slurry Output (solid form) ([1]; IPA, water activity 0.25, RT): Form 7
Slurry Output (solid form) ([1]; IPA, water activity 0.50, 5° C.): Form 13
Slurry Output (solid form) ([1]; IPA, water activity 0.50, 40° C.): Form 5
Slurry Output (solid form) ([1]; IPA, water activity 0.50, RT): Form 13
Slurry Output (solid form) ([1]; IPA, water activity 0.70, 5° C.): Form 13
Slurry Output (solid form) ([1]; IPA, water activity 0.70, 40° C.): Form 5
Slurry Output (solid form) ([1]; IPA, water activity 0.70, RT): Form 13
Slurry Output (solid form) ([1]; IPA, water activity 0.90, 5° C.): Form 13
Slurry Output (solid form) ([1]; IPA, water activity 0.90, 40° C.): Form 13
Slurry Output (solid form) ([1]; IPA, water activity 0.90, RT): Form 13
Slurry Output (solid form) ([1]; MiBK, water activity 0, 5° C.): Form 7
Slurry Output (solid form) ([1]; MiBK, water activity 0, 40° C.): Form 7
Slurry Output (solid form) ([1]; MiBK, water activity 0, RT): Form 7
Slurry Output (solid form) ([1]; TBME, water activity 0, 5° C.): Form 7
Slurry Output (solid form) ([1]; TBME, water activity 0, 40° C.): Form 7
Slurry Output (solid form) ([1]; TBME, water activity 0, RT): Form 7
Slurry Output (solid form) ([1]; Toluene, water activity 0, 5° C.): Form 7
Slurry Output (solid form) ([1]; Toluene, water activity 0, 40° C.): Form 7
Slurry Output (solid form) ([1]; Toluene, water activity 0, RT): Form 7
Slurry Output (solid form) ([1]; Water, water activity 1.00, 5° C.): Form 7 + Form 18
Slurry Output (solid form) ([1]; Water, water activity 1.00, 40° C.): Form 7
Slurry Output (solid form) ([1]; Water, water activity 1.00, RT): Form 18
Slurry Output (solid form) ([1]; iProAc, water activity 0, 5° C.): Form 7
Slurry Output (solid form) ([1]; iProAc, water activity 0, 40° C.): Form 7
Slurry Output (solid form) ([1]; iProAc, water activity 0, RT): Form 7
Slurry Output (solid form) ([1]; nBuOH, water activity 0, 5° C.): Form 7
Slurry Output (solid form) ([1]; nBuOH, water activity 0, 40° C.): Form 7
Slurry Output (solid form) ([1]; nBuOH, water activity 0, RT): Form 20
Solid Form after storage (physical stability) ([2]; 80° C./40% RH, 1 week): Form 7
Physical change after storage (physical stability) ([2]; 80° C./75% RH, 1 week (as printed in text)): did not undergo any physical change
amount of physical impurity ([3]; 25° C./60% RH, 12 months): No change detected
amount of physical impurity ([3]; 30° C./65% RH, 12 months): No change detected
amount of physical impurity ([3]; 50° C./75% RH, 2 weeks): No change detected
amount of physical impurity ([3]; 70° C./10% RH, 3 weeks): No change detected
amount of physical impurity ([3]; 70° C./40% RH, 2 weeks): No change detected
amount of physical impurity ([3]; 70° C./75% RH, 1 week): No change detected
physical stability relative to the acetic acid solvate of lorlatinib free base ([3]; representative drug product formulation): superior physical stability
Compound: C[C@H]1Oc2cc(cnc2N)-c2c(nn(C)c2C#N)CN(C)C(=O)c2ccc(F)cc21 [Form 7, (10R)-7-amino-12-fluoro-2,10,16-trimethyl-15-oxo-10,15,16,17-tetrahydro-2H-8,4-(metheno)pyrazolo[4,3-h][2,5,11]benzoxadiazacyclotetradecine-3-carbonitrile]
Thermodynamic stability, overall outcome of slurry experiments ([1]; diverse solvent systems, 5° C., room temperature and 40° C., water activities 0.25 to 1.00, 2 weeks): does not convert to a different anhydrous solid state
Solid Form after storage (physical stability) ([2]; 70° C./75% RH, 1 week): did not undergo any physical change; also recorded: Form 7
Solid Form after storage (physical stability) ([2]; 75% RH, ambient temperature, 12 months): did not undergo any physical change; also recorded: Form 7
Solid Form after storage (physical stability) ([2]; 90% RH, ambient temperature, 12 months): did not undergo any physical change; also recorded: Form 7

amount of physical impurity ([3]; 70° C./10% RH, 3 weeks): impurity >50%
amount of physical impurity ([3]; 70° C./40% RH, 2 weeks): impurity >50%
amount of physical impurity ([3]; 70° C./75% RH, 1 week): impurity >50%
Compound: CC(=O)O.C[C@H]1Oc2cc(cnc2N)-c2c(nn(C)c2C#N)CN(C)C(=O)c2ccc(F)cc21 [lorlatinib acetic acid solvate, reference compound]
